From article PMC11055068, “Humoral Immune Response to SARS-CoV-2 Spike Protein Receptor-Binding Motif Linear Epitopes” (Vaccines, 2024)

How the values were obtained:
[1] = tested on: Purified antibodies specific to the RBM (anti-RBM antibodies from vaccinated serum); type: binding, human
[2] = tested on: IgG in serum of vaccinated individuals; test: In-house peptide ELISA, IgG; type: binding, human; details: serum 1:25; for IgG seroreactivity (positive samples): reactivity index > 1.1
Procedure: A panel of 31 serum samples were obtained from individuals who received a single dose of the Oxford/AstraZeneca vaccine, and 15 serum samples were collected from individuals who received four doses. Serum from healthy donors, collected before the pandemic, was provided by HEMORIO, a centralized network of blood donor facilities in Rio de Janeiro, Brazil. Serum samples were supplied without identifying information to ensure patient privacy.
An in-house ELISA was conducted using Immunolon 4 HB plates (Immunochemistry Technologies, Bloomington, MN, USA). The coating process involved overnight incubation at 4 °C, wherein each well received 500 ng of peptides in a coating buffer (50 mM carbonate–bicarbonate buffer, pH 9.6). After washing with PBS-T (phosphate-buffered saline plus 0.05% Tween 20), the plates were incubated for 1 h at 37 °C with 1% BSA (200 µL) in PBS-T to block free binding sites. Following the dilution of patient serum in PBS-T with 1% BSA (1:25), 100 µL of the diluted serum was applied to immunosorbent plates, which were then incubated at 37 °C for 1 h. Following a series of PBS-T washes, plates were treated with 100 µL of mouse anti-human IgG3 (1:1000) followed by association with antimouse peroxidase (1:15.000) or goat anti-human immunoglobulin classes IgG (1:10.000), IgM (1:10.000), and IgA (1:5000) or subclasses IgG1 (1:1000) and IgG2 (1:1000) associated with the HRP molecule, respectively (Sigma-Aldrich, St Louis, MO, USA). Between each step, the plates were incubated at 37 °C for 1 h. Following the addition of 3,3′,5,5′-tetramethylbenzidine (1-Step™ Ultra TMB-ELISA, Science Biotech Ltd., Lages, SC, Brazil) for 15 min, 0.5 M sulfuric acid was utilized to terminate the reaction. The plate was read 30 min after the Stop Solution was added. The values of empty wells that contained only peptides were deducted from the optical density of the sample.
Prism software (GraphPad version 6, San Diego, CA, USA) was utilized to analyze the data. Statistical differences were identified using the Kruskal–Wallis test and Dunn’s multiple comparisons tests. Differences were considered significant when the p-value was less than 0.05. The reactivity index (RI) was calculated by dividing the absorbance of a given protein by the threshold established by a receiver operation curve (ROC) analysis. A result greater than 1.10 was considered positive, while a result less than 0.90 was considered negative; these are represented by dot lines. Samples with a relative index (RI) value of 1.0 ± 10% were classified as gray-zone samples and deemed inconclusive.

[3] = Protein thermal shift assay; type: physicochemical
Procedure: Protein thermal shift assays were performed using a QuantStudio 3 PCR System (Applied Biosystems, Foster City, CA, USA). The experiments used a 0.2 mL MicroAmp® optical eight-strip manufactured by Applied Biosystems. Every step was executed on ice. In each measurement, duplicates or quadruplicates of the samples were analyzed. Each measurement included a negative control free of protein and a positive control obtained with Lysozyme (10 µg) and the peptide S8WT (5 µg). A carbonate–bicarbonate buffer (50 mM, pH 9.6) and a protein thermal shift dye (Applied Biosystems, Foster City, CA, USA) were used in a 4× dye concentration. The plate was sealed with MicroAmp™ Optical Adhesive Film (Applied Biosystems, Foster City, CA, USA) and incubated on ice for 15 min after all components were pipetted into the wells. An Applied Biosystems QuantStudio™ 3 Real-Time PCR System was used, utilizing a gradient rate of 0.05 °C/s and a melt curve filter setting of x2-m2 from 25 °C to 99 °C with continuous data collection. Analyses of the melting curves were conducted with the TSAR application in R version 4.2.1.

antibodies in sera = details: ref A novel precision-serology assay for SARS-CoV-2 infection based on linear B-cell epitopes of Spike protein; cited from earlier work
[4] = first dose Oxford/AstraZeneca, n = 30, 500 ng peptide per well
[5] = heterologous booster doses, n = 7

Substance: GSTPCNGVEGFNCYF [S2WT]
- binding affinity of RBM antibodies (in words) [1]: stronger
- Kd ([1]; read-out: Kd (dissociation constant)): 35 nM
- IgG positive samples (reactivity index > 1.1) [2, 4]: 4/30
- IgG seroreactivity (positive samples) ([2]; first dose Oxford/AstraZeneca, n = 30): 13.3%
- IgG positive samples (reactivity index > 1.1) [2, 5]: 1/7
- IgG seroreactivity (positive samples) [2, 5]: 14.3%

Substance: Lysozyme
- Tm ([3]; Lysozyme 10 µg control, carbonate–bicarbonate buffer 50 mM, pH 9.6, 25 to 99 °C, 0.05 °C/s, protein thermal shift dye): 72.7 °C
- Tm ([3]; replicate 1 (Lysozyme_1), 10 µg, carbonate–bicarbonate buffer pH 9.6): 71.7 °C
- Tm ([3]; replicate 2 (Lysozyme_2), 10 µg, carbonate–bicarbonate buffer pH 9.6): 73.7 °C

Substance: NGVEGFNCYFP
- serological reactivity vs other S1 and S2 regions (antibodies in sera): less serologically reactive than other S1 and S2 regions

Substance: YFPLQSYGFQPTNGV [S3WT]
- IgG positive samples (reactivity index > 1.1) [2, 4]: only two positive samples
- IgG positive samples (reactivity index > 1.1) [2, 5]: one for heterologous booster doses
